Measurements: EP0994713B1, “USE OF A 7alpha-METHYL-17alpha-ETHYNYL-ESTRANE DERIVATIVE FOR THE TREATMENT OF ATHEROSCLEROSIS” (Akzo Nobel N.V., priority 1997, dated 1998)

How the values were obtained:
Assay type in all cases: in vivo, New Zealand White rabbits
[1] = tested on: female ovariectomized rabbits; assay: Plasma cholesterol levels, cholesterol fed rabbit model; details: for Mean plasma cholesterol exposure: cholesterol diet, OVX, 20 weeks
Procedure: (§1) The model is considered relevant to the human atherosclerotic process, because the cellular events occurring during the development of the atherosclerotic lesions during the atherogenic diet are similar to those observed in different stages of atherosclerotic processes in coronary arteries.
(§2) An experiment was performed with 7 groups of sexually mature, virgin female New Zealand White rabbits (Harlan, Zeist, The Netherlands), age 7-9 months and weighing approximately 3 kg (number of […] per group: 13-14). During the acclimatization period the rabbits were fed a diet of standard commercial rabbit chow LKK20 (Hope Farms, Woerden, The Netherlands). Three weeks prior to the start of the experiment the animals were anaesthetized and underwent bilateral ovariectomy (OVX) or were sham operated. After three weeks, at the start of the experiment, the rabbits were randomized over the treatment groups.
(§3) The animals were randomly allocated into 7 experimental groups using a randomized block design. […] One group was fed the standard rabbit chow (LKK20). Food intake was restricted to 80 grams daily.
(§4) Groups 1, 2 and 3 were on a daily placebo treatment. Groups 4-5 were treated with 7α-methyl-17α-ethynyl-17β-hydroxy-estra-5(10)-en-3-one (OD-14; tibolone; 6 or 2 mg daily); group 6 with 17β-estradiol (4 mg daily). Group 7 was on treatment with 17β-estradiol decanoate (150 µg in 1 ml arachis oil injected subcutaneously once a week).
(§5) During the experiment blood samples were drawn out of the central ear artery after sedation with Hypnorm (0.1 ml i.m.) (Janssen Pharmaceutics, Beerse, Belgium) before the daily treatment, at week 4,8,12,16 and 20, to monitor the plasma cholesterol levels and to measure, at week 17, plasma estradiol levels and plasma tibolone levels. Twenty weeks after the start of the experiment animals were anaesthetized by an i.m. injection of Hypnorm (0.5 ml/kg). After blood sampling the rabbits were killed by exsanguination and the aortic arch, uterus and carotid artery removed for further analyses.
(§6) Three weeks prior to the start of the experiment the animals were ovariectomized. At the start of the experiment the carotid artery was de-endothelialised using the air-drying technique. The normal rabbit chow was replaced by the atherogenic diet except for the control group which received during the experiment the normal rabbit chow.
(§7) Group 5 was on treatment with 17β-estradiol decanoate (300 µg in 1 ml arachis oil injected subcutaneously once a week).

[2] = tested on: female ovariectomized rabbits; assay: Vessel wall cholesterol measurement in the aortic arch; details: for Cholesterol level in aortic arch: cholesterol diet, OVX, necropsy at 20 weeks
Procedure: as §1, §2, §3, §4, §5, §6, §7
The amount of protein in the tissue was determined by the method of Lowry.

[3] = tested on: female ovariectomized rabbits; assay: Fatty streaks in the aortic arch (Sudan Red, image analysis); details: for Fatty streak in aortic arch: cholesterol diet, OVX, necropsy at 20 weeks
Procedure: as §1
as §2, with “groups. In all animals de-endothelialisation of a segment of the left carotid artery was applied by using the air-drying technique (Fishman, J.A. et al., "Endothelial regeneration in the rat carotid artery and the significance of endothelial denudation in the pathogenesis of myointimal thickening", Lab. Invest. 1975, 32, 339-351; and Lafont, A. et al., "Restenosis and experimental angioplasty: Intimal, medial and adventitial changes associated with constructive remodeling", Circulation Research, 1995, 76, 996-1002)” for “groups.”
The animals were randomly allocated into 7 experimental groups using a randomized block design. The groups were fed an atherogenic diet (commercial rabbit chow (LKK20) enriched with 0.4 grams cholesterol, 3.75 grams coconut oil and 3.75 grams peanut oil per 100 grams). One group was fed the standard rabbit chow (LKK20). Food intake was restricted to 80 grams daily.
as §4, with “The treatments (Table I) were daily administered orally as a tablet, prepared as in Example 1. Groups 1,” for “Groups 1,”
as §5
(§8) In addition to example 2 an additional experiment was performed with two lower doses of Org OD14 and a higher dose of estradiol decanoate. […] The procedures were identical to those in example 2.
as §6
(§9) The treatments (table II) of group 1, 2, 3 and 4 were daily administered orally as a tablet, prepared as in example 1. The doses of Org OD14 per tablet, however, were 0.6 mg and 0.15 mg respectively. Group 5 was on treatment with 17β-estradiol decanoate (300 µg in 1 ml arachis oil injected subcutaneously once a week). Twenty weeks after the start of the experiment was ended in the same manner as described in example 2.
The aortic arch was dissected free, opened longitudinally and fixed in 2% paraformaldehyde. The tissue was then stained for lipids using 0.3% (w/v) Sudan Red. Colour photographs were taken of all segments. […]

[4] = tested on: female ovariectomized rabbits; assay: Overall atherosclerotic lesion formation, cholesterol fed rabbit model; details: Example 3: Org OD14 0.6 mg orally daily; estradiol decanoate 300 µg s.c. weekly
Procedure: as §1, §8, §6, §9
In example 3 we tested Org OD14 at two lower doses (0.6 and 0.15 mg orally once daily) and estradiol decanoate at a higher dose (300 µg s.c. once weekly). […]

[5] = Example 2, Group 4: 6 mg orally daily
[6] = Example 2, Group 5: 2 mg orally daily
[7] = Example 2: Org OD14 2 and 6 mg, E2 4 mg orally daily, E2D 150 µg s.c. weekly
[8] = Example 3: 0.15 mg orally once daily
[9] = Example 3: 0.6 mg orally once daily

For `C#C[C@]1(O)CC[C@H]2[C@@H]3[C@H](C)CC4=C(CCC(=O)C4)[C@H]3CC[C@@]21C` [Org OD14, 7α-methyl-17α-ethynyl-17β-hydroxy-estra-5(10)-en-3-one], the “Mean plasma cholesterol exposure” value [1, 5] was 11.2 ± 1.5 mmol/L/day, the “Mean plasma cholesterol exposure” value [1, 6] was 9.0 ± 1.3 mmol/L/day and the “plasma cholesterol levels (in words)” value [1, 7] was “strongly reduced the plasma cholesterol levels”. The “Mean plasma cholesterol exposure” value [1, 8] was 20.7 ± 1.5 mmol/L/day, the “Mean plasma cholesterol exposure” value [1, 9] was 12.8 ± 1.2 mmol/L/day and the “Cholesterol level in aortic arch” value [2, 5] was 52 ± 9 nmol/mg protein. The “Cholesterol level in aortic arch” value [2, 6] was 61 ± 11 nmol/mg protein, the “cholesterol accumulation in the aortic arch (in words)” value ([2]; Example 2: Org OD14 2 and 6 mg, E2 4 mg orally daily) was “completely prevented cholesterol accumulation” and the “Cholesterol level in aortic arch” value [2, 8] was 297 ± 67 nmol/mg protein. For the same compound, the “Cholesterol level in aortic arch” value [2, 9] was 97 ± 23 nmol/mg protein, the “Fatty streak in aortic arch” value [3, 5] was 1.3 ± 0.8 % of arcus covered and the “Fatty streak in aortic arch” value [3, 6] was 1.4 ± 0.7 % of arcus covered. For the same compound, the “Fatty streak formation in the aortic arch (in words)” value [3, 7] was “(nearly) completely prevented the fatty streak formation”, the “Fatty streak in aortic arch” value [3, 8] was 23.5 ± 5.3 % of arcus covered and the “Fatty streak in aortic arch” value [3, 9] was 5.9 ± 2.4 % of arcus covered. The “atherosclerotic lesion formation (in words)” value [4] was “still nearly completely prevented”.
